From patent US6391566B1, “Ionotropic human glutamate receptor subunit NR3” (NPS Allelix Corporation, priority 1992, dated 2002) come the findings set out here.

Format in all cases: cell-based
In assay [1] the target is T1, NR3-1/NMDAR1-3C heteromeric complex (Homo sapiens, UniProt Q05586+Q13224).
T1 construct: expressed in transfected cells; host or cells: HEK293 (transient, lipofectamine)
The assay is described as follows: Whole-cell voltage-clamp recording of NMDA-evoked currents in transiently transfected HEK293 cells (heteromeric expression). As to conditions: 60 μM NMDA. The protocol:
(§1) For transient expression, HEK293 cells were transfected with approximately 0.4 μg DNA (as pcDNA1-Amp/hNR3 or pcDNA1-Amp/hNR1-3C) per 10^5 HEK293 cells, by lipofectamine-mediated DNA transfection according to the manufacturer's (Life Technologies Inc., Gaithersburg, Md.) specifications. In coexpression experiments, i.e. for heteromeric expression of NR3-1 and NMDAR1-3C, the HEK293 cells were similarly transfected with 0.8 μg of a DNA mixture containing pcDNA1-Amp/hNR3 and pcDNA1-Amp/hNR1-3C. Briefly, HEK293 cells were plated at a density of 10^5 cells/dish and then grown for 24 hours in 10% FBS-supplemented MEM medium (Life Technologies Inc., Gaithersburg, Md.). The medium was then removed and cells were washed in OPTI-MEM I medium (Life Technologies Inc.) lacking FBS, prior to transfection. A transfection solution (100 μl ) containing 2-4 μl of lipofectamine and DNA was then applied to the cells. After incubation for 4 hours at 37° C., cells were washed as previously described and then allowed to grow for 48 hours in 10% FBS-supplemented MEM medium containing 50 μM DL-AP5 (2-amino-5-phosphonopentanoic acid) and 50 μM 7-chlorokyneurinic acid prior to electrophysiological recording. […]

The target in a further assay is T2, NMDAR1-3C (Homo sapiens, UniProt Q05586).
T2 construct: expressed in transfected cells; host or cells: HEK293 (transient, lipofectamine)
As to the kind of experiment: Whole-cell voltage-clamp recording of NMDA-evoked currents in HEK293 cells transfected with NMDAR1-3C alone. As to conditions: 60 μM NMDA; HEK293 cells transiently transfected with NMDAR1-3C alone; FIG. 10. The protocol:
as §1

For a further assay, the target named is T3, NR3 (Homo sapiens, UniProt Q13224).
T3 construct: expressed in transfected cells; host or cells: HEK293 (transient, lipofectamine)
As to the kind of experiment: Whole-cell voltage-clamp recording of NMDA-evoked currents in HEK293 cells transfected with NR3 alone. The settings on record: 60 μM NMDA; HEK293 cells transiently transfected with NR3 alone; FIG. 10. The protocol: as §1

T1 sequence (Q13224 27-1484, other chains not shown): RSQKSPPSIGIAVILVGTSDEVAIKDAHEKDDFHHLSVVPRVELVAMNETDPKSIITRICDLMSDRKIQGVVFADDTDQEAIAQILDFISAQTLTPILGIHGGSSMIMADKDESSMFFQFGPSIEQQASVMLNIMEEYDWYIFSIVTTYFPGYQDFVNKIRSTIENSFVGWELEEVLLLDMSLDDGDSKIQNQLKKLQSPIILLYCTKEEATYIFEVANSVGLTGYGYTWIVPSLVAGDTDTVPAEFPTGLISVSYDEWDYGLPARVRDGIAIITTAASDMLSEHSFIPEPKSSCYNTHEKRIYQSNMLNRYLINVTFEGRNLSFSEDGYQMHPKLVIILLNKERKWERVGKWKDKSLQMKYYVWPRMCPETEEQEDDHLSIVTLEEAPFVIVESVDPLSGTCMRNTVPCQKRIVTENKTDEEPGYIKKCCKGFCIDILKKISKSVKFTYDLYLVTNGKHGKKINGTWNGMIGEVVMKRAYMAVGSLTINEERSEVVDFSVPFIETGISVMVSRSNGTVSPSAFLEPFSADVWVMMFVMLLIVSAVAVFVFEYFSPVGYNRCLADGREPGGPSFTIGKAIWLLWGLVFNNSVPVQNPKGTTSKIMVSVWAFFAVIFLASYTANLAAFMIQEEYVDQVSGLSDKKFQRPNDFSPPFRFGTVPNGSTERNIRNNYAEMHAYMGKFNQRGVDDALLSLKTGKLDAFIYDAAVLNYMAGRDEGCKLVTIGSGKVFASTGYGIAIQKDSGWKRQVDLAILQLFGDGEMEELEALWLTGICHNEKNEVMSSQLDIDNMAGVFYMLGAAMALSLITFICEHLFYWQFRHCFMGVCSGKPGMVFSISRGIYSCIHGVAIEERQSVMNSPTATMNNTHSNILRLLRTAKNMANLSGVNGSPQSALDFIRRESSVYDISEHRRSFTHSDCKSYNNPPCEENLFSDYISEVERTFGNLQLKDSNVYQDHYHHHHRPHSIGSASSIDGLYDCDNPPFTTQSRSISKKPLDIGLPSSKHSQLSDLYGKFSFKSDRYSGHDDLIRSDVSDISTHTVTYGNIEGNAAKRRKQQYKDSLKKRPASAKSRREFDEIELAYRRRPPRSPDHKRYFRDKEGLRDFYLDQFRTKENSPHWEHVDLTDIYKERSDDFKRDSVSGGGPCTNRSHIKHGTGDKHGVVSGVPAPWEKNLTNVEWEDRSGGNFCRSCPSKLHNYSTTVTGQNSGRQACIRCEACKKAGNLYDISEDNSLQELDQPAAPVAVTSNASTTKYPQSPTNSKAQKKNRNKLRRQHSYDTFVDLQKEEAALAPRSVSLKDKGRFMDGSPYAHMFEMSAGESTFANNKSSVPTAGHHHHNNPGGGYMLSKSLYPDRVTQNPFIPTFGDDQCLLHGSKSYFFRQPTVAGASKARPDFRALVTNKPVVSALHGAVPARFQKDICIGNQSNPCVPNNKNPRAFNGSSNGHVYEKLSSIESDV
T3 sequence (Q13224 27-1484): as the sequence (Q13224 27-1484, other chains not shown) above

As to `[Cl-].[Cl-].[Mg+2]` [MgCl2], in assay [1] (1 mM MgCl2, HEK293 cells transfected with both NR3-1 and NMDAR1-3C), the “block of NMDA-induced currents” value is reported as “blocked”.
Regarding `CN[C@H](CC(=O)O)C(=O)O` [NMDA, N-methyl-D-aspartate], the NMDA-induced depolarizations entry is on record as “No NMDA-induced depolarizations were observed” on NMDAR1-3C; “NMDA-induced depolarizations were, however, observed” in assay [1] (HEK293 cells transiently transfected with both NR3-1 and NMDAR1-3C, FIG. 10); “No NMDA-induced depolarizations were observed” at NR3.
